Measurements taken from patent publication US9969714B2, “Carboxylic acid compounds useful for inhibiting microsomal prostaglandin E2 synthase-1” (Eli Lilly and Company, priority 2014, dated 2018).

Key:
[1] = tested on: Human epithelial lung carcinoma cell line A549; test: Cell based assay for measuring eicosanoid selectivity (rhIL-1β-induced PGE2, EIA); conditions: A549 cells, rhIL-1β 0.1 ng/mL, approximately 18 hours, read-out: IC50, inhibition of PGE2 formation
Method: Human epithelial lung carcinoma cell line A549 is obtained from ATCC (CCL-185) and maintained in cell growth medium (Kaighn's F12 cell culture medium+10% fetal bovine serum (FBS)), under standard 5% CO2 humidified atmosphere at 37° C. The cells are passaged at 1:3 twice per week.
For the assays, cells are harvested from flasks by washing once with phosphate buffered saline (PBS), then once with Trypsin-EDTA. After 3-5 minutes at 37° C., the cells are suspended in cell growth medium and centrifuged at 2,000 rpm, 25° C., for 5 minutes. The supernatant is aspirated and the cell pellet is re-suspended in cell growth medium. The cell number is determined by counting an aliquot of cells which has been diluted in PBS and Trypan blue on a hemocytometer. Cells are plated at 40,000/well in 96 well Falcon plates 24 hours prior to treatment. Compounds are diluted in DMSO to 100× of the final concentration in Screen Mates tubes. The medium is removed from the cells and fresh medium (90 μL/well) is added to the cells. The compounds are added at 1 μL/well, n=2, to give seven concentrations each. Cells are pretreated with compounds for 30 minutes at 37° C., 5% CO2. […] After approximately 90-120 minutes at room temperature on an orbital shaker at 100 rpm, the plates are read at A412 on a plate reader. […]

[2] = tested on: human whole blood; test: Human whole blood assay (LPS-induced PGE2, LC/MS/MS); assay type: cell-based; conditions: LPS 100 μg/mL, 20-24 hours, n=6, read-out: IC50, inhibition of PGE2 formation
Method: Blood is collected from normal volunteer donors into sodium heparin VACUTAINER tubes. Donors are selected, in part, on their confirmation that they have not taken NSAIDs, aspirin, Celebrex®, or glucocorticoids within two weeks of the donation. All tubes/donor are pooled into 250 mL Corning conical centrifuge tubes and 436.5 μL/well is distributed into deep well polypropylene plates. Compounds are diluted in DMSO to 100× final and 4.5 μL/well in duplicate or triplicate is added to give 7 point curves. […] One hundred microliters is quantitatively transferred to Costar cluster tubes blocks and 400 μL/well of the methanol stop reagent and internal standards, d4-PGE2, d4-PGF2α, and […] are added. […]
Solid phase extraction is performed using Waters HLB 30 mg/bed 96 well plates on a vacuum manifold: Step 1, the matrix is washed with methanol (1 mL), followed by 0.1% formic acid in water (1 mL); Step 2, 400 μL sample is applied along with 0.1% formic acid in water (900 μL) and allowed to bind for 5 minutes; Step 3, the matrix is washed with 0.1% formic acid in water (600 μL), followed by 80/20 water/methanol (600 μL); Step 4, the products are eluted with 2-500 μL volumes of EtOAc; Step 5 the samples are dried under nitrogen and reconstituted in 75/25 water/acetonitrile with 0.1% formic acid (50 μL). The products are analyzed by LC/MS/MS.

IC50 [1]: 5.3 nM
IC50 [2]: 5.9 ± 3.4 nM
SMILES: Cc1cccc2ccc(N3CCC(C(=O)N[C@H]4CCC[C@H]4CCc4ccccc4C(=O)O)CC3)nc12 [Example 1, 2-(2-((1S,2S)-2-(1-(8-Methylquinolin-2-yl)piperidine-4-carboxamido)cyclopentyl)ethyl)benzoic acid]
